Assay results taken from ChEMBL document CHEMBL3856191, “Structural modifications at the 6-position of thieno[2,3-d]pyrimidines and their effects on potency at FLT3 for treatment of acute myeloid leukemia” (Eur J Med Chem, 2016).

What was measured:
[1] = target: T1, Receptor-type tyrosine-protein kinase FLT3 (Homo sapiens, UniProt P36888); assay: biochemical; format: cell-based, Sf21
T1 sequence (P36888 whole entry): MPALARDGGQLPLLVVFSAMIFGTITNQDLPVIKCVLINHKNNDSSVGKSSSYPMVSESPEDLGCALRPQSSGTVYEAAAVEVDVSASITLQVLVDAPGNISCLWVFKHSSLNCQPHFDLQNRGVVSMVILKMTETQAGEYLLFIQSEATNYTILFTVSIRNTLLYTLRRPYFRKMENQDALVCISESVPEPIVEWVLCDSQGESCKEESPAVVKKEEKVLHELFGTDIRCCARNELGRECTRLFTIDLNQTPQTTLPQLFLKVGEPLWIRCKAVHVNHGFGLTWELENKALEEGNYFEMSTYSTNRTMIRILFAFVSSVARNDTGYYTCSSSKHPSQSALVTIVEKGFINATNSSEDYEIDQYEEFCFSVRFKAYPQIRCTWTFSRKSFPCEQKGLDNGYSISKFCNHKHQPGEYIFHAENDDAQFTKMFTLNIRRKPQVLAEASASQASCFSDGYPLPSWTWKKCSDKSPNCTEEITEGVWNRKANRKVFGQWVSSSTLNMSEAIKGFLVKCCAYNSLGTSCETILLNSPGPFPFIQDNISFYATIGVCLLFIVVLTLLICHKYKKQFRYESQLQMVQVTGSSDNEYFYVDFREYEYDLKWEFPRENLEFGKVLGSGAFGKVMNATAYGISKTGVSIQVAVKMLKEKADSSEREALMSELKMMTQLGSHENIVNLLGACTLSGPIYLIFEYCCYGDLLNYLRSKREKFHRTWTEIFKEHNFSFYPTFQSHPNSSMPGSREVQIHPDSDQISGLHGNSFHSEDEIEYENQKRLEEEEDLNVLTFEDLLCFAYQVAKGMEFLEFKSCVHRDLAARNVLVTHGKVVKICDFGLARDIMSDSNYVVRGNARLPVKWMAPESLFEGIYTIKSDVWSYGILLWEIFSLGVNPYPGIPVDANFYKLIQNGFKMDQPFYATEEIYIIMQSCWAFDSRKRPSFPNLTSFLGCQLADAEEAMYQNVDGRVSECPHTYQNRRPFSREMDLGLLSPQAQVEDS
Description: Inhibition of recombinant human FLT3 expressed in insect Sf21 cells preincubated for 15 mins followed by poly(Glu:Tyr) substrate addition for 30 mins in presence of [gamma-32P]ATP by TR-FRET assay

[2] = target: Receptor-type tyrosine-protein kinase FLT3 (Homo sapiens, UniProt P36888, D835Y)
Description: Inhibition of human FLT3 D835Y mutant preincubated for 15 mins followed by poly(Glu:Tyr) substrate addition for 30 mins in presence of [gamma-32P]ATP by TR-FRET assay

[3] = Metabolic stability in human liver microsomes assessed as compound remaining at 1 uM after 30 mins in presence of NADPH by HPLC-MS analysis; format: ADME; conditions: read-out: Stability
[4] = tested on: Tyrosine-protein kinase ABL1 (Homo sapiens), P00519 [T315I]; assay: Inhibition of human ABL T315I mutant assessed as remaining activity at 10 uM preincubated for 15 mins followed by poly(Glu:Tyr) substrate addition for 30 mins in presence of [gamma-32P]ATP by […] assay
[5] = target: Fibroblast growth factor receptor 3 (Homo sapiens) (UniProt P22607); assay: Inhibition of recombinant human FGFR3 expressed in insect Sf21 cells assessed as remaining activity at 10 uM preincubated for 15 mins followed by poly(Glu:Tyr) substrate addition for 30 mins in presence of [gamma-32P]ATP by […] assay
[6] = target: Inhibitor of nuclear factor kappa-B kinase subunit beta (Homo sapiens) (UniProt O14920); assay: Inhibition of recombinant human IKK-beta expressed in insect Sf21 cells assessed as remaining activity at 10 uM preincubated for 15 mins followed by IKKtide substrate addition for 30 mins in presence of [gamma-32P]ATP by […] assay
[7] = target: Mitogen-activated protein kinase 10 (Homo sapiens) (UniProt P53779); assay: Inhibition of recombinant human JNK3 expressed in insect Sf21 cells assessed as remaining activity at 10 uM preincubated for 15 mins followed by ATF2 substrate addition for 30 mins in presence of [gamma-32P]ATP by […] assay
[8] = target: Tyrosine-protein kinase Lyn (Homo sapiens) (UniProt P07948); assay: Inhibition of LYN (unknown origin) assessed as remaining activity at 10 uM in presence of [gamma-32P]ATP by […] assay
[9] = target: MAP kinase-activated protein kinase 2 (Homo sapiens) (UniProt P49137); assay: Inhibition of recombinant human MAPKAPK2 expressed in Escherichia coli assessed as remaining activity at 10 uM preincubated for 15 mins followed by MAPKAPK substrate peptide addition for 30 mins in presence of [gamma-32P]ATP by […] assay
[10] = target: Serine/threonine-protein kinase mTOR (Homo sapiens) (UniProt P42345); assay: Inhibition of human mTOR assessed as remaining activity at 10 uM in presence of [gamma-32P]ATP by […] assay
[11] = target: PI3-kinase p110-alpha/p85-alpha (Homo sapiens) (UniProt P27986+P42336); assay: Inhibition of PI3K P110alpha/p85alpha (unknown origin) assessed as remaining activity at 10 uM in presence of [gamma-32P]ATP by […] assay; format: protein-complex assay
[12] = target: Proto-oncogene tyrosine-protein kinase receptor Ret (Homo sapiens) (UniProt P07949); assay: Inhibition of recombinant human RET expressed in insect Sf21 cells assessed as remaining activity at 10 uM preincubated for 15 mins followed by poly(Glu:Tyr) substrate addition for 30 mins in presence of [gamma-32P]ATP by […] assay
[13] = target: Mitogen-activated protein kinase 12 (Homo sapiens) (UniProt P53778); assay: Inhibition of human SAPK3 assessed as remaining activity at 10 uM in presence of [gamma-32P]ATP by […] assay
[14] = target: Tyrosine-protein kinase SYK (Homo sapiens) (UniProt P43405); assay: Inhibition of recombinant human SYK expressed in insect Sf21 cells assessed as remaining activity at 10 uM preincubated for 15 mins followed by poly(Glu:Tyr) substrate addition for 30 mins in presence of [gamma-32P]ATP by […] assay
Angiopoietin-1 receptor = Angiopoietin-1 receptor (Homo sapiens, UniProt Q02763); assay: Inhibition of human TIE2 assessed as remaining activity at 10 uM preincubated for 15 mins followed by substrate addition measured after 30 mins in presence of [gamma-32P]ATP by […] assay
[15] = target: Tyrosine-protein kinase ABL1 (Homo sapiens, UniProt P00519); assay: Inhibition of recombinant human ABL1 expressed in insect cells preincubated for 15 mins followed by poly(Glu:Tyr) substrate addition for 30 mins in presence of [gamma-32P]ATP by […] assay
[16] = Tmax in Sprague-Dawley rat at 30 mg/kg, po by LC/MS/MS analysis; format: ADME, organism-based; conditions: in vivo
[17] = Cmax in Sprague-Dawley rat at 30 mg/kg, po by LC/MS/MS analysis; format: ADME, organism-based; set-up: dose 30 mg/kg, route oral; conditions: in vivo
cells = conditions: Homo sapiens, MV4-11, 48 h
Description: Growth inhibition of human MV4-11 cells expressing FLT3-ITD after 48 hrs by XTT assay

Mitogen-activated protein kinase 12 (Homo sapiens), sequence (P53778 whole entry): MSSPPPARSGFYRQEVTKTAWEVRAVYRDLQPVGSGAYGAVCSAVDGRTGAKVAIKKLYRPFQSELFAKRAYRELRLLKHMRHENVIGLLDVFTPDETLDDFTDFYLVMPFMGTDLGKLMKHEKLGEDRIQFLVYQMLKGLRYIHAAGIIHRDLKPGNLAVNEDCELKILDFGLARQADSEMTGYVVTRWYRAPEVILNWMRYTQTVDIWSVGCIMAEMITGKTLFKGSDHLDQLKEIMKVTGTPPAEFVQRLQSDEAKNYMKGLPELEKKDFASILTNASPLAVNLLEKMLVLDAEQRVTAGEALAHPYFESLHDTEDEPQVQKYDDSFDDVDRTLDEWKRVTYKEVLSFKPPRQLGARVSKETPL
Inhibitor of nuclear factor kappa-B kinase subunit beta (Homo sapiens), sequence (O14920 whole entry): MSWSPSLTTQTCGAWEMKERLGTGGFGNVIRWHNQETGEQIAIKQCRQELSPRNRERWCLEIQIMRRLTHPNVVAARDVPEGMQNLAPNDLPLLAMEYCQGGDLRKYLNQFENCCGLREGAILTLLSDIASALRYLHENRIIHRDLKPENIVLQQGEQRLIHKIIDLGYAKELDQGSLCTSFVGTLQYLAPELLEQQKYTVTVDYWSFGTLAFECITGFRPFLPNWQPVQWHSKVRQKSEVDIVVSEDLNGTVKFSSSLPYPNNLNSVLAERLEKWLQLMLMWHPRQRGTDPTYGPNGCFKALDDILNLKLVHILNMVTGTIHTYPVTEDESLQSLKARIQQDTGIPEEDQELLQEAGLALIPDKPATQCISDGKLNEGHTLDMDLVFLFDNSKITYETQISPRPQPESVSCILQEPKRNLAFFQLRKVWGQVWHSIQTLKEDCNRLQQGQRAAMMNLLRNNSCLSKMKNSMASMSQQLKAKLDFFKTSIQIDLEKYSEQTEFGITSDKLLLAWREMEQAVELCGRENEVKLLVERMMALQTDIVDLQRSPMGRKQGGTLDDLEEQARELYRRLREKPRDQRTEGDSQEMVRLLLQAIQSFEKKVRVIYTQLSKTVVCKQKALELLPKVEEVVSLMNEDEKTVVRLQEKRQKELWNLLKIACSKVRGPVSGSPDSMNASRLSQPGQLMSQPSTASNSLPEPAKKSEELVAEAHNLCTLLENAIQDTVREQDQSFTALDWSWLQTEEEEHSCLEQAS
Mitogen-activated protein kinase 10 (Homo sapiens), sequence (P53779 whole entry): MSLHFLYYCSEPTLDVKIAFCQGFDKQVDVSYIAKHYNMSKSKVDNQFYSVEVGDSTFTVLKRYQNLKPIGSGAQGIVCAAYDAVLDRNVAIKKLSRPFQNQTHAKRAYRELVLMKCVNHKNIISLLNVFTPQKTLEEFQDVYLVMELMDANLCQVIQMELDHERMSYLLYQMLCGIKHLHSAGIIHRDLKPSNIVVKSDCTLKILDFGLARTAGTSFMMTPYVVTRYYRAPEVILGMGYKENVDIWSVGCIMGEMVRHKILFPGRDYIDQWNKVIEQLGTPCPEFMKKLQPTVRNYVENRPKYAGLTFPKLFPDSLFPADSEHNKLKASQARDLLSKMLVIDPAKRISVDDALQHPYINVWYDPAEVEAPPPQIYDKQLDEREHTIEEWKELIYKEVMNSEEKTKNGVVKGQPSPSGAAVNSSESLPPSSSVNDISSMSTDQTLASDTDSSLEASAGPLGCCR
Fibroblast growth factor receptor 3 (Homo sapiens), sequence (P22607 23-806 limits assumed): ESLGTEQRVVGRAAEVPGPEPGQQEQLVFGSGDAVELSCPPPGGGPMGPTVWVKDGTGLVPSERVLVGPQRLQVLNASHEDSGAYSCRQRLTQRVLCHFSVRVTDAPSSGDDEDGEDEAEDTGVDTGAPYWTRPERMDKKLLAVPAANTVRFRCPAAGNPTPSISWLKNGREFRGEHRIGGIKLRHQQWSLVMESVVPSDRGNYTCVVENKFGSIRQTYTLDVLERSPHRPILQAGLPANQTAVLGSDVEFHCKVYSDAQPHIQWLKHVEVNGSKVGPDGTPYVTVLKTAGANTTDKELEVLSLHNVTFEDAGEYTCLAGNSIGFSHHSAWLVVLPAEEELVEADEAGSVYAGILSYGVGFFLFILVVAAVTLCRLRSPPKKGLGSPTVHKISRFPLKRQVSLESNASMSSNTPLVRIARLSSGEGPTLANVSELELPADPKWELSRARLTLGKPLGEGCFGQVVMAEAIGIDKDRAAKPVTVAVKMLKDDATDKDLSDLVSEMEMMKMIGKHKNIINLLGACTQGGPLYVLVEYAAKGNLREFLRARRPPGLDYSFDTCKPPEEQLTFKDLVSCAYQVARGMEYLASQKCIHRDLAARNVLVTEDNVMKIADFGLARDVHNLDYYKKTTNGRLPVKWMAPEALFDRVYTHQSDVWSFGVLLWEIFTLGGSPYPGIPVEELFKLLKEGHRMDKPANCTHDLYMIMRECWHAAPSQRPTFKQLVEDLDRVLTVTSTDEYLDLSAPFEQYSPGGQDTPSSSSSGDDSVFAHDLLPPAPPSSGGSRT
Tyrosine-protein kinase Lyn (Homo sapiens), sequence (P07948 2-512 limits assumed): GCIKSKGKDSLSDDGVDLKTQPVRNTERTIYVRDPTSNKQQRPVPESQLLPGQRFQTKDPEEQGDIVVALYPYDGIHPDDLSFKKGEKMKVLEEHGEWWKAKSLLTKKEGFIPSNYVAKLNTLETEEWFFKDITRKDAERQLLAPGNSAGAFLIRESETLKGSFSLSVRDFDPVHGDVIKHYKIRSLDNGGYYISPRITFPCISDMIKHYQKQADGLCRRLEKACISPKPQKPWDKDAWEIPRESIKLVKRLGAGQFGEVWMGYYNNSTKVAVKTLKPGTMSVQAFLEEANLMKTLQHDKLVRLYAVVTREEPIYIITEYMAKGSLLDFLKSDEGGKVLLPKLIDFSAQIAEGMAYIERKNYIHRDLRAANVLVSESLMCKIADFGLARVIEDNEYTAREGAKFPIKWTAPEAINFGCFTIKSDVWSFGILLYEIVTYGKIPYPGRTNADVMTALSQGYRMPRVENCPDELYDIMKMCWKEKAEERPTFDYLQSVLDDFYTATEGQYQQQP
Angiopoietin-1 receptor, sequence (Q02763 whole entry): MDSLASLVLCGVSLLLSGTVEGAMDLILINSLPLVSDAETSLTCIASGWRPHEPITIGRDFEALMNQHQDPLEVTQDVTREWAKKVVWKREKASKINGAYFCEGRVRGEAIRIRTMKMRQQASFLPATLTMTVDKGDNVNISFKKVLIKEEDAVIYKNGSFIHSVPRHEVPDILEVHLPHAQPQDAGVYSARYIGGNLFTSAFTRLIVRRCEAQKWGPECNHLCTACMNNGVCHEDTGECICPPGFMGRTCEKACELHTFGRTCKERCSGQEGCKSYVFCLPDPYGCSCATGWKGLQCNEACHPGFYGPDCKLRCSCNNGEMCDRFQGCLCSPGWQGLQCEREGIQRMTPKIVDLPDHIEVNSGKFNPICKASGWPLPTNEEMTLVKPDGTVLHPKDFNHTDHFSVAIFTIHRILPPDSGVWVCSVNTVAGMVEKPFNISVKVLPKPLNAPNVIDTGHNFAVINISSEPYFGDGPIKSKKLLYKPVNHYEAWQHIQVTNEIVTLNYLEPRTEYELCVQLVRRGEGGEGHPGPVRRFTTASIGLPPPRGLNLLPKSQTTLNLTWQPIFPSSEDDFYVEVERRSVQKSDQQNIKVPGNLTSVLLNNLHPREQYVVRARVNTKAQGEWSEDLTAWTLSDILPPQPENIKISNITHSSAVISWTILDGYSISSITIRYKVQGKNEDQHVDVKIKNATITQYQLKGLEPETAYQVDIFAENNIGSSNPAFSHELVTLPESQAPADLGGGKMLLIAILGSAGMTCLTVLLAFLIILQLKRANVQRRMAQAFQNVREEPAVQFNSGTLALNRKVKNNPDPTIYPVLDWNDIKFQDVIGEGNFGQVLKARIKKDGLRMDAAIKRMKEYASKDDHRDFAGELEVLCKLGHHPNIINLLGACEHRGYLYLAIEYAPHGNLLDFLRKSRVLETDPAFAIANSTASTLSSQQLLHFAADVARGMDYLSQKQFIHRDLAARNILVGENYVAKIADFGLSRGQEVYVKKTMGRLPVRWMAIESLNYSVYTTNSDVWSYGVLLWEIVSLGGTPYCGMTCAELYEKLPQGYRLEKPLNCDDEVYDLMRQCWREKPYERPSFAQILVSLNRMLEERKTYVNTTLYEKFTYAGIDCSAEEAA
MAP kinase-activated protein kinase 2 (Homo sapiens), sequence (P49137 whole entry, looked up): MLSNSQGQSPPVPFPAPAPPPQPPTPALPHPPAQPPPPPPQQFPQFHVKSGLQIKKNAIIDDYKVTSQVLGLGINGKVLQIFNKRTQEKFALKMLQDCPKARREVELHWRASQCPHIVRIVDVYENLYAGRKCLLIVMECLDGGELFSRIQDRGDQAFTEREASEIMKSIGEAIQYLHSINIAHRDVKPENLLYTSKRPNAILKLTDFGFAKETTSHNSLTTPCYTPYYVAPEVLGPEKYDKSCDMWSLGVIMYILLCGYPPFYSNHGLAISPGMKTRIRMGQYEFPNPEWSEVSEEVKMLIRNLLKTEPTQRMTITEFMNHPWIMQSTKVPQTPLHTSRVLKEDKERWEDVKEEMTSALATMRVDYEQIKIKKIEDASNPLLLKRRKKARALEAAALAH

## CNCCOc1ccc(-c2sc3nc(-c4cccs4)nc(NN4C(=O)C=C(C)C4=O)c3c2C)cc1.Cl
[1]
  IC50: 8.03 nM
[2]
  IC50: 10.2 nM
[3]
  remaining at 0.5 h, 1 µM: 79.8%
[4]
  Activity: 44%
[5]
  Activity: 72%
[6]
  Activity: 63%
[7]
  Activity: 96%
[8]
  Activity: 58%
[9]
  Activity: 63 to 100%
[10]
  Activity: 79%
[11]
  Activity: 96%
[12]
  Activity: 42%
[13]
  Activity: 99%
[14]
  Activity: 80%
Angiopoietin-1 receptor
  Activity: 16%
[15]
  IC50: 2880 nM
[16]
  Tmax: 15 min
[17]
  Cmax: 420 ng/mL
cells
  GI50: 540 nM
